Results published in article PMC9037210, “Novel 3-(6-methylpyridin-2-yl)coumarin-based chalcones as selective inhibitors of cancer-related carbonic anhydrases IX and XII endowed with anti-proliferative activity” (Journal of Enzyme Inhibition and Medicinal Chemistry, 2022).

Tests used:
HCC-2998 = experiment: NCI single (10 µM) dose SRB screening, HCC-2998; assay type: cell-based, human; details: 10 µM single dose, HCC-2998, Colon cancer
Method: (§1) Following NCI protocol, sixteen MPCs were screened for their potential in vitro anticancer effects against human 59 cancer cell panels including prostate, leukaemia melanoma, colon, breast, CNS, renal, NSCLC, and ovarian cancers by National Cancer Institute (USA)[30].
(§2) The antiproliferative activities of MPC 3 and MPCs 5a–o were first evaluated in a 10 µM dose assay, with SRB assay used to determine cell survival and proliferation. […] The results of the cell growth inhibitory activities for MPCs 5g and 5l towards the different treated tumour cell lines were presented as GI% and presented in Table 3.
(§3) The anticancer test was conducted using the methods of the Drug Evaluation Branch, National Cancer Institute, Bethesda, MD, using 59 human tumour cell lines derived from nine human tissues. The GI50, TGI, and LC50 dose-response parameters were calculated for each medication.

T-47D = experiment: NCI single (10 µM) dose SRB screening, T-47D; assay type: cell-based, human; details: 10 µM single dose, Breast cancer
Method: as §1, §2, §3

hCA II = target: T1, hCA II (Homo sapiens, UniProt P00918); experiment: stopped-flow CO2 hydrase assay, hCA II; assay type: biochemical; details: incubation time of 6 h, mean of three assays, read-out: KI CA II
T1 construct: made in house
Method: (§4) The newly synthesised MPCs (3 and 5a–o) were assessed for their CA inhibition activity employing the stopped-flow CO2 hydrase assay[29] for constitutional hCA (I/II) isoforms and cancer-linked hCA (IX/XII) isoforms.
(§5) The CA inhibition activity for the herein reported MPC derivatives was evaluated against the hCA isoforms I, II, IX, and XII using stopped-flow CO2 hydrase test[7]^,[33–36] (see the Supplementary Material).
(§6) Carbonic anhydrase inhibition assay
(§7) The carbonic anhydrase catalyzed CO2 hydration actions for all coumarin-based […]
(§8) Photophysics stopped-flow. The enzymes are recombinant proteins prepared in our lab. Phenol red (at a concentration of 0.2 mM) has been used as indicator, working at […]
(§9) mM Na2SO4 (for maintaining constant the ionic strength), following the initial rates of the CA-catalyzed CO2 hydration reaction for a period of 10-100 s. The CO2 concentrations ranged from 1.7 to 17 mM for the determination of the kinetic parameters and inhibition constants. For each inhibitor at least six traces of the initial 5-10% of the reaction have been used for determining the initial velocity. The uncatalyzed rates were determined in the same manner and subtracted from the total observed rates. Stock solutions of inhibitor (0.1 mM) were prepared in distilled-deionized water and dilutions up to 0.01 nM were done thereafter with the assay buffer. Inhibitor and enzyme solutions were preincubated together for 6 hrs. at room temperature prior to assay, in order to allow for the formation of the E-I complex. The inhibition constants were obtained by non-linear least-squares methods using PRISM 3 and the Cheng-Prusoff equation, and represent the mean from at least three different

IGROV1 = experiment: NCI single (10 µM) dose SRB screening, IGROV1; assay type: cell-based, human; details: 10 µM single dose, IGROV1, Ovarian cancer
Method: as §1, §2, §3

SN 12 C = experiment: NCI single (10 µM) dose SRB screening, SN 12 C; assay type: cell-based, human; details: 10 µM single dose, Renal cancer
Method: as §1, §2, §3

OVCAR-8 = experiment: NCI single (10 µM) dose SRB screening, OVCAR-8; assay type: cell-based, human; details: 10 µM single dose, OVCAR-8, Ovarian cancer
Method: as §1, §2, §3

BT-549 = experiment: NCI single (10 µM) dose SRB screening, BT-549; assay type: cell-based, human; details: 10 µM single dose, BT-549, Breast cancer
Method: as §1, §2, §3

UO-31 = experiment: NCI single (10 µM) dose SRB screening, UO-31; assay type: cell-based, human; details: 10 µM single dose, UO-31, Renal cancer
Method: as §1, §2, §3

MDA-MB-231 = experiment: NCI single (10 µM) dose SRB screening, MDA-MB-231; assay type: cell-based, human; details: 10 µM single dose, MDA-MB-231, Breast cancer
Method: as §1, §2, §3

hCA IX = target: T2, hCA IX (Homo sapiens, UniProt Q16790); experiment: stopped-flow CO2 hydrase assay, hCA IX; assay type: biochemical; details: for Selectivity index (SI) (KI off-target CA/KI target CA) Towards hCA IX: ratio of KI for hCA I and II relative to hCA IX; for Ki: stopped-flow, incubation time of 6 h, mean of three assays, read-out: KI CA IX
T2 construct: made in house
Method: as §4, §5, §6, §7, §8, §9

HL-60(TB) = experiment: NCI single (10 µM) dose SRB screening, HL-60(TB); assay type: cell-based, human; details: 10 µM single dose, Leukaemia
Method: as §1, §2, §3

EKVX = experiment: NCI single (10 µM) dose SRB screening, EKVX; assay type: cell-based, human; details: 10 µM single dose, NSC lung cancer
Method: as §1, §2, §3

NCI-H460 = experiment: NCI single (10 µM) dose SRB screening, NCI-H460; assay type: cell-based, human; details: 10 µM single dose, NCI-H460, NSC lung cancer
Method: as §1, §2, §3

MOLT-4 = experiment: NCI single (10 µM) dose SRB screening, MOLT-4; assay type: cell-based, human; details: 10 µM single dose, MOLT-4, Leukaemia
Method: as §1, §2, §3

A549/ATCC = experiment: NCI single (10 µM) dose SRB screening, A549/ATCC; assay type: cell-based, human; details: 10 µM single dose, NSC lung cancer
Method: as §1, §2, §3

CCRF-CEM = experiment: NCI single (10 µM) dose SRB screening, CCRF-CEM; assay type: cell-based, human; details: 10 µM single dose, Leukaemia
Method: as §1, §2, §3

KM 12 = experiment: NCI single (10 µM) dose SRB screening, KM 12; assay type: cell-based, human; details: 10 µM single dose, KM 12, Colon cancer
Method: as §1, §2, §3

CAKI-1 = experiment: NCI single (10 µM) dose SRB screening, CAKI-1; assay type: cell-based, human; details: 10 µM single dose, CAKI-1, Renal cancer
Method: as §1, §2, §3

HCT-15 = experiment: NCI single (10 µM) dose SRB screening, HCT-15; assay type: cell-based, human; details: 10 µM single dose, HCT-15, Colon cancer
Method: as §1, §2, §3

SK-MEL-5 = experiment: NCI single (10 µM) dose SRB screening, SK-MEL-5; assay type: cell-based, human; details: 10 µM single dose, SK-MEL-5, Melanoma
Method: as §1, §2, §3

NCI-H522 = experiment: NCI single (10 µM) dose SRB screening, NCI-H522; assay type: cell-based, human; details: 10 µM single dose, NCI-H522, NSC lung cancer
Method: as §1, §2, §3

SW-620 = experiment: NCI single (10 µM) dose SRB screening, SW-620; assay type: cell-based, human; details: 10 µM single dose, SW-620, Colon cancer
Method: as §1, §2, §3

hCA I = target: T3, hCA I (Homo sapiens, UniProt P00915); experiment: stopped-flow CO2 hydrase assay, hCA I; assay type: biochemical; details: stopped-flow, incubation time of 6 h, mean of three assays; read-out: KI CA I
T3 construct: made in house
T3 sequence (P00915 whole entry): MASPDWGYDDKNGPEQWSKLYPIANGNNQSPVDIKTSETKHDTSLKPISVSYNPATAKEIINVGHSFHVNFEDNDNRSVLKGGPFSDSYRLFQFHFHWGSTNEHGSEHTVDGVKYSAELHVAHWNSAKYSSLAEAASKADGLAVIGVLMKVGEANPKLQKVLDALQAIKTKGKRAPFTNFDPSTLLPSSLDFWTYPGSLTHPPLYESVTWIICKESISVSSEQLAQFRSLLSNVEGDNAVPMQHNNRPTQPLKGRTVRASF
Method: as §4, §5, §6, §7, §8, §9

SF-268 = experiment: NCI single (10 µM) dose SRB screening, SF-268; assay type: cell-based, human; details: 10 µM single dose, SF-268, CNS cancer
Method: as §1, §2, §3

ACHN = experiment: NCI single (10 µM) dose SRB screening, ACHN; assay type: cell-based, human; details: 10 µM single dose, Renal cancer
Method: as §1, §2, §3

U251 = experiment: NCI single (10 µM) dose SRB screening, U251; assay type: cell-based, human; details: 10 µM single dose, U251, CNS cancer
Method: as §1, §2, §3

RXF 393 = experiment: NCI single (10 µM) dose SRB screening, RXF 393; assay type: cell-based, human; details: 10 µM single dose, RXF 393, Renal cancer
Method: as §1, §2, §3

NCI-H322M = experiment: NCI single (10 µM) dose SRB screening, NCI-H322M; assay type: cell-based, human; details: 10 µM single dose, NSC lung cancer
Method: as §1, §2, §3

Row | SMILES | GI % (HCC-2998) | GI % (T-47D) | Ki (hCA II) [µM] | GI % (IGROV1) | GI % (SN 12 C) | GI % (OVCAR-8) | GI % (BT-549) | GI % (UO-31) | GI % (MDA-MB-231) [%] | Selectivity index (SI) (KI off-target CA/KI target CA) Towards hCA IX (hCA IX) | Ki (hCA IX) [µM] | GI % (HL-60(TB)) [%] | GI % (EKVX) | GI % (NCI-H460) | GI % (MOLT-4) [%] | GI % (A549/ATCC) | GI % (CCRF-CEM) [%] | GI % (KM 12) [%] | GI % (CAKI-1) [%] | GI % (HCT-15) [%] | also measured
1 | Cc1nc(-c2cc3ccccc3oc2=O)ccc1C(=O)/C=C/c1ccc(N2CCOCC2)cc1 [Compound 5g, 3-(6-Methyl-5-[(2E)-3-[4-(morpholin-4-yl)phenyl]prop-2-enoyl]pyridin-2-yl)-2H-chromen-2-one] | – (Only GI % more than 20% are displayed.) | – (Only GI % more than 20% are displayed.) | > 100 | – (Only GI % more than 20% are displayed.) | – (Only GI % more than 20% are displayed.) | – (Only GI % more than 20% are displayed.) | 23% | – (Only GI % more than 20% are displayed.) | 45 | >8.33 | 12 | 61 | – (Only GI % more than 20% are displayed.) | – (Only GI % more than 20% are displayed.) | 33 | – (Only GI % more than 20% are displayed.) | 27 | 31 | 34 | 45 | GI % (SK-MEL-5): 28%; GI % (NCI-H522): 38%; GI % (SW-620): – (Only GI % more than 20% are displayed.); Ki (hCA I): > 100 µM; GI % (SF-268): 24%; GI % (ACHN): 29%; GI % (U251): – (Only GI % more than 20% are displayed.); GI % (RXF 393): – (Only GI % more than 20% are displayed.); GI % (NCI-H322M): – (Only GI % more than 20% are displayed.)
2 | Cc1nc(-c2cc3ccccc3oc2=O)ccc1C(=O)/C=C/c1ccccn1 [Compound 5l, 3-(6-Methyl-5-[(2E)-3-(pyridin-2-yl)prop-2-enoyl]pyridin-2-yl)-2H-chromen-2-one] | 33% | 47% | > 100 | 93% | 52% | 30% | – (Only GI % more than 20% are displayed.) | 41% | 87 | >26.32 | 3.8 | 67 | – (Only GI % more than 20% are displayed.) | 58% | 72 | 33% | 93 | 93 | 39 | 133 | GI % (SK-MEL-5): – (Only GI % more than 20% are displayed.); GI % (NCI-H522): 41%; GI % (SW-620): 98%; Ki (hCA I): > 100 µM; GI % (SF-268): 21%; GI % (ACHN): 41%; GI % (U251): 92%; GI % (RXF 393): 67%; GI % (NCI-H322M): – (Only GI % more than 20% are displayed.)
